Series [1] is described as follows: Cytotoxicity against NCI60 cell line. The series is classed as cell-based. As to conditions: human.
Series [2] is described as follows: Cytotoxicity against MDR HCT15 cells. The series is classed as cell-based. As to conditions: human, MDR HCT-15 cells.
A short description of series [3]: Cytotoxicity against NCI-H460 cells. The series is classed as cell-based. The following applies: human.
The test system of another series is HCC 2998. In words: Tumor growth inhibition against HCC2998 cells. The format is functional. As to conditions: Homo sapiens, read-out: Log TGI (converted).
Another series deals with HL-60. In words: Tumor growth inhibition against HL60 cells. The format is functional. The following applies: Homo sapiens, read-out: Log TGI (converted).
Series [4] can be described thus: Tumor growth inhibition of […] cells xenografted in immunodeficient mouse at 150 mg/kg/day after 25 days. The format is functional. The following applies: Homo sapiens, 600 h.

The term pGI50 denotes −log10 of the GI50, conventionally taken in molar units. In general, GI50 refers to the concentration at which growth is held to half of that of the control. Read a high GI50 as lower sensitivity of the cells. Consider `COc1ccc(-c2nccn2-c2cc(OC)c(OC)c(OC)c2)cc1`, for which, in series [1], the “Log TGI” value is given as -4.16 and the pGI50 turned out to be 5.34. The same compound had a GI50 in series [2] of 1150 nM. Further, the GI50 in series [3] came to 1580 nM.

In the case of `COc1ccc(-c2cncn2-c2ccc(OC)cc2)cc1`, in series [1], the “Log TGI” value is recorded as -4.32. The same compound had a pGI50 in series [1] of 4.8. In addition, the GI50 in series [2] came out at 19500 nM; in series [3], 15500 nM.

Usually TGI stands for the concentration giving total growth inhibition. For the compound `COc1cc(-n2cncc2-c2ccc3ccccc3c2)cc(OC)c1OC`, the “Log TGI” value in series [1] is reported as -4.4. The same compound showed a pGI50 in series [1] of 7.14. The figures for the 50% growth inhibitory concentration (GI50) in series [2] and in series [3] were 17 nM and 18 nM, respectively. Further, in the series on HCC 2998, the TGI was 29.5 nM.

Turning to `COc1cc(-c2nccn2-c2ccc3ccccc3c2)cc(OC)c1OC`, in series [1], the “Log TGI” value is listed as -4.8. The pGI50 in series [1] came to 6.86. The GI50 in series [2] came to 22 nM; in series [3], 21 nM.

As for `COc1cc(-n2ccnc2-c2ccc3ccccc3c2)cc(OC)c1OC`, in series [1], the “Log TGI” value is on record as -4.68. For the same compound, the pGI50 in series [1] is on record as 6.82. Moreover, the GI50 in series [2] was 51 nM; in series [3], 37 nM.

With `COc1ccc(-n2ccnc2-c2cc(OC)c(OC)c(OC)c2)cc1`, in series [1], the “Log TGI” value is given as -4.32. Further, in series [1], the pGI50 worked out at 5.45. Besides, the GI50 in series [2] was 1150 nM; in series [3], 2340 nM.

With `COc1ccc(-c2cncn2-c2cc(OC)c(OC)c(OC)c2)cc1F`, the “Log TGI” value in series [1] was -4.51. The compound also showed a pGI50 in series [1] of 7.4. Moreover, the GI50 in series [2] and in series [3] was less than 10 nM each time. In the series with HL-60, the TGI was less than 28.8 nM.

Usually inhibition in vivo stands for the relative decrease from the control value, in per cent. With `COc1ccc(-c2cncn2-c2cc(OC)c(OC)c(OC)c2)cc1`, the inhibition in vivo at 150 mg/kg/day in series [4] came to 52%. For the same compound, in series [1], the “Log TGI” value was -4.71 and the pGI50 was 6.59. The compound further registered a GI50 in series [2] of 170 nM. This compound also showed a GI50 in series [3] of 363 nM.

Regarding `COc1ccc(-c2nccn2-c2ccc(OC)cc2)cc1`, in series [1], the “Log TGI” value is -4.19 and the pGI50 is 4.76. The compound also came in with a 50% growth inhibitory concentration (GI50) in series [2] of 22900 nM. Moreover, in series [3], growth was halved (GI50) at 17800 nM.

`COc1ccc(/C=C\c2cc(OC)c(OC)c(OC)c2)cc1O` [COMBRETASTATIN A4]: in series [1], the “Log TGI” value is reported as -5.03 and the pGI50 is listed as 7. Further, the GI50 in series [2] was less than 10 nM. In series [3], this compound had a 50% growth inhibitory concentration (GI50) of less than 10 nM.

These data come from ChEMBL document CHEMBL1139723, “Novel imidazole-based combretastatin A-4 analogues: evaluation of their in vitro antitumor activity and molecular modeling study of their binding to the colchicine site of tubulin” (Bioorg Med Chem Lett, 2006).
